Test results reported in patent US12564638B2 (SHANGHAITECH UNIVERSITY, priority 2019, dated 2026).

These molecules were tested on HCC827 cells (EGFR Exon19 del, non-small cell lung cancer cells) (assay: Cell viability assay (WST/CCK8), HCC827 cells). Conditions: HCC827 cells, 72 hours.
Format: cell-based
Source text: The cell lines with abnormal EGFR expression used are as follows: • HCC827 cells (EGFR Exon19 del, non-small cell lung cancer cells); • PC9 cells (EGFR Exon 19 del, non-small cell lung cancer cells); • PC9BracA1 (EGFR Exon 19 del+T790M, non-small cell lung cancer cells) • H1975 (EGFR Exon T790M+L858R mutation, non-small cell lung cancer cell line) • BT474 cells (HER2 positive breast cancer cells)
All of the half inhibitory concentrations (IC50) of these compounds of the present invention were determined with WST reagent from Fuyuan Biotec Company. The specific experiment procedures are as follows: Cancer cells were planted in 96-well-plate at the density of 3 000 cells per well with 100 μL RPMI1640 completed culture medium. In the next day, compounds with indicated concentrations were added to the cells, DMSO was used as the negative control and the EGFR TKIs were used to treat cells as the positive groups. After 72 hours drug treatment, cell viability was measured by using the WST reagent following the instructions.
The cells were treated with the gradient concentration of these compounds (the maximum concentration: 10 μM; 3-fold dilution ratio, 10 concentration gradients) for 72 hours and then incubated with the WST (CCK8) reagent to determine the cell viability.

COc1cc2ncnc(Nc3cccc(Cl)c3F)c2cc1OC1CCN(CC(=O)NCCCCSc2cccc3c2CN(C2CCC(=O)NC2=O)C3=O)CC1 (centres unmarked) [SIAIS293067, 2-(4-((4-((3-chloro-2-fluorophenyl)amino)-7-methoxyquinazolin-6-yl)oxy)piperidin-1-yl)-N-(4-((2-(2,6-dioxopiperidin-3-yl)-1-oxoisoindolin-4-yl)thio)butyl)acetamide] was tested, and the “cell proliferation inhibition (in words)” value was “better than sapitinib on cell killing”.

Same assay, conditions: Homo sapiens, HCC827, 72 h, Table 3, poziotinib-based compounds; HCC827 (Exon19 Del); 72 hours; WST (CCK8); read-out: IC50 (half inhibitory concentration)

First: COc1cc2ncnc(Nc3ccc(Cl)c(Cl)c3F)c2cc1OC1CCN(C(=O)CCOCCOCCOCCOCCNc2cccc3c2C(=O)N(C2CCC(=O)NC2=O)C3=O)CC1 (centres unmarked) [SIAIS249032, 4-((15-(4-((4-((3,4-dichloro-2-fluorophenyl)amino)-7-methoxyquinazolin-6-yl)oxy)piperidin-1-yl)-15-oxo-3,6,9,12-tetraoxapentadecyl)amino)-2-(2,6-dioxopiperidin-3-yl)isoindoline-1,3-dione]
Second: COc1cc2ncnc(Nc3ccc(Cl)c(Cl)c3F)c2cc1OC1CCN(C(=O)CCOCCOCCOCCNc2cccc3c2C(=O)N(C2CCC(=O)NC2=O)C3=O)CC1 (centres unmarked) [SIAIS249031, 4-((2-(2-(2-(3-(4-((4-((3,4-dichloro-2-fluorophenyl)amino)-7-methoxyquinazolin-6-yl)oxy)piperidin-1-yl)-3-oxopropoxy)ethoxy)ethoxy)ethyl)amino)-2-(2,6-dioxopiperidin-3-yl)isoindoline-1,3-dione]
The IC50 of the first is 2.6-fold lower: 11 nM for the first, 28.2 nM for the second.

First: COc1cc2ncnc(Nc3ccc(Cl)c(Cl)c3F)c2cc1OC1CCN(C(=O)CCOCCOCCC(=O)N[C@H](C(=O)N2C[C@H](O)C[C@H]2C(=O)NCc2ccc(-c3scnc3C)cc2)C(C)(C)C)CC1 [SIAIS249025, (2S,4R)-1-((S)-2-(3-(2-(3-(4-((4-((3,4-dichloro-2-fluorophenyl)amino)-7-methoxyquinazolin-6-yl)oxy)piperidin-1-yl)-3-oxopropoxy)ethoxy)propanamido)-3,3-dimethylbutanoyl)-4-hydroxy-N-(4-(4-methylthiazol-5-yl)benzyl)pyrrolidine-2-carboxamide]
Second: COc1cc2ncnc(Nc3ccc(Cl)c(Cl)c3F)c2cc1OC1CCN(C(=O)CCOCCOCCOCCOCCC(=O)N[C@H](C(=O)N2C[C@H](O)C[C@H]2C(=O)NCc2ccc(-c3scnc3C)cc2)C(C)(C)C)CC1 [SIAIS249027, (2S,4R)-1-((S)-2-(tert-butyl)-19-(4-((4-((3,4-dichloro-2-fluorophenyl)amino)-7-methoxyquinazolin-6-yl)oxy)piperidin-1-yl)-4,19-dioxo-7,10,13,16-tetraoxa-3-azanonadecan-1-oyl)-4-hydroxy-N-(4-(4-methylthiazol-5-yl)benzyl)pyrrolidine-2-carboxamide]
The IC50 of the first is 2.5-fold lower: 158 nM for the first, 400 nM for the second. The first is the more potent here.

Going from COc1cc2ncnc(Nc3ccc(Cl)c(Cl)c3F)c2cc1OC1CCN(C(=O)CCOCCOCCOCCOCCOCCC(=O)N[C@H](C(=O)N2C[C@H](O)C[C@H]2C(=O)NCc2ccc(-c3scnc3C)cc2)C(C)(C)C)CC1 [SIAIS249028, (2S,4R)-1-((S)-2-(tert-butyl)-22-(4-((4-((3,4-dichloro-2-fluorophenyl)amino)-7-methoxyquinazolin-6-yl)oxy)piperidin-1-yl)-4,22-dioxo-7,10,13,16,19-pentaoxa-3-azadocosan-1-oyl)-4-hydroxy-N-(4-(4-methylthiazol-5-yl)benzyl)pyrrolidine-2-carboxamide] to COc1cc2ncnc(Nc3ccc(Cl)c(Cl)c3F)c2cc1OC1CCN(C(=O)CCOCCOCCNc2cccc3c2C(=O)N(C2CCC(=O)NC2=O)C3=O)CC1 (centres unmarked) [SIAIS249030, 4-((2-(2-(3-(4-((4-((3,4-dichloro-2-fluorophenyl)amino)-7-methoxyquinazolin-6-yl)oxy)piperidin-1-yl)-3-oxopropoxy)ethoxy)ethyl)amino)-2-(2,6-dioxopiperidin-3-yl)isoindoline-1,3-dione], the IC50 falls from 240 nM to 6.3 nM (38-fold). The second is the more potent here.

COc1cc2ncnc(Nc3ccc(Cl)c(Cl)c3F)c2cc1OC1CCN(C(=O)CCOCCNc2cccc3c2C(=O)N(C2CCC(=O)NC2=O)C3=O)CC1 (centres unmarked) [SIAIS249029, 4-((2-(3-(4-((4-((3,4-dichloro-2-fluorophenyl)amino)-7-methoxyquinazolin-6-yl)oxy)piperidin-1-yl)-3-oxopropoxy)ethyl)amino)-2-(2,6-dioxopiperidin-3-yl)isoindoline-1,3-dione] gave an IC50 of 80 nM.

Same assay, conditions: Homo sapiens, HCC827, 72 h, Table 4, gefitinib and sapitinib-based compounds; HCC827 (Exon19 Del); 72 hours; WST; read-out: IC50 (half inhibitory concentration)

Going from COc1cc2ncnc(Nc3ccc(F)c(Cl)c3)c2cc1OC1CCN(CC(=O)NCCCCSc2cccc3c2CN(C2CCC(=O)NC2=O)C3=O)CC1 (centres unmarked) [SIAIS293049, 2-(4-((4-((3-chloro-4-fluorophenyl)amino)-7-methoxyquinazolin-6-yl)oxy)piperidin-1-yl)-N-(4-((2-(2,6-dioxopiperidin-3-yl)-1-oxoisoindolin-4-yl)thio)butyl)acetamide] to COc1cc2ncnc(Nc3ccc(F)c(Cl)c3)c2cc1OC1CCN(CC(=O)NCCCSc2cccc3c2CN(C2CCC(=O)NC2=O)C3=O)CC1 (centres unmarked) [SIAIS293048, 2-(4-((4-((3-chloro-4-fluorophenyl)amino)-7-methoxyquinazolin-6-yl)oxy)piperidin-1-yl)-N-(3-((2-(2,6-dioxopiperidin-3-yl)-1-oxoisoindolin-4-yl)thio)propyl)acetamide], the IC50 rises from 2.8 nM to 23 nM (8.2-fold).

Compared with COc1cc2ncnc(Nc3ccc(F)c(Cl)c3)c2cc1OCCCN1CCN(C(=O)CCCSc2cccc3c2C(=O)N(C2CCC(=O)NC2=O)C3=O)CC1 (centres unmarked) [SIAIS184165, 4-((4-(4-(3-((4-((3-chloro-4-fluorophenyl)amino)-7-methoxyquinazolin-6-yl)oxy)propyl)piperazin-1-yl)-4-oxobutyl)thio)-2-(2,6-dioxopiperidin-3-yl)isoindoline-1,3-dione], COc1cc2ncnc(Nc3ccc(F)c(Cl)c3)c2cc1OCCCN1CCN(C(=O)CCCSc2cccc3c2CN(C2CCC(=O)NC2=O)C3=O)CC1 (centres unmarked) [SIAIS184185, 3-(4-((4-(4-(3-((4-((3-chloro-4-fluorophenyl)amino)-7-methoxyquinazolin-6-yl)oxy)propyl)piperazin-1-yl)-4-oxobutyl)thio)-1-oxoisoindolin-2-yl)piperidine-2,6-dione] is 1.9-fold higher in IC50: 58 nM for the first, 113 nM for the second. The first is the more potent here.

Going from COc1cc2ncnc(Nc3ccc(F)c(Cl)c3)c2cc1OC1CCN(CC(=O)NCCCCCCCCSc2cccc3c2CN(C2CCC(=O)NC2=O)C3=O)CC1 (centres unmarked) [SIAIS293052, 2-(4-((4-((3-chloro-4-fluorophenyl)amino)-7-methoxyquinazolin-6-yl)oxy)piperidin-1-yl)-N-(8-((2-(2,6-dioxopiperidin-3-yl)-1-oxoisoindolin-4-yl)thio)octyl)acetamide] to COc1cc2ncnc(Nc3ccc(F)c(Cl)c3)c2cc1OC1CCN(CC(=O)NCCCCCCCSc2cccc3c2CN(C2CCC(=O)NC2=O)C3=O)CC1 (centres unmarked) [SIAIS293051, 2-(4-((4-((3-chloro-4-fluorophenyl)amino)-7-methoxyquinazolin-6-yl)oxy)piperidin-1-yl)-N-(7-((2-(2,6-dioxopiperidin-3-yl)-1-oxoisoindolin-4-yl)thio)heptyl)acetamide], the IC50 rises from 0.25 nM to 6.5 nM (26-fold).

Compared with COc1cc2ncnc(Nc3cccc(Cl)c3F)c2cc1OC1CCN(CC(=O)NCCCCSc2cccc3c2CN(C2CCC(=O)NC2=O)C3=O)CC1 (centres unmarked) [SIAIS293067, 2-(4-((4-((3-chloro-2-fluorophenyl)amino)-7-methoxyquinazolin-6-yl)oxy)piperidin-1-yl)-N-(4-((2-(2,6-dioxopiperidin-3-yl)-1-oxoisoindolin-4-yl)thio)butyl)acetamide], COc1cc2ncnc(Nc3ccc(F)c(Cl)c3)c2cc1OCCCN1CCC(N2CCN(C(=O)CSc3cccc4c3CN(C3CCC(=O)NC3=O)C4=O)CC2)CC1 (centres unmarked) [SIAIS262085, 3-(4-((2-(4-(1-(3-((4-((3-chloro-4-fluorophenyl)amino)-7-methoxyquinazolin-6-yl)oxy)propyl)piperidin-4-yl)piperazin-1-yl)-2-oxoethyl)thio)-1-oxoisoindolin-2-yl)piperidine-2,6-dione] is 480-fold higher in IC50: 0.3 nM for the first, 145 nM for the second. The first is the more potent here.

In the case of CNC(=O)CN1CCC(Oc2cc3c(Nc4cccc(Cl)c4F)ncnc3cc2OC)CC1 [Sapitinib (AZD8931), sapitinib, reference compound], the IC50 is reported as 0.4 nM.

Same assay, conditions: Homo sapiens, HCC827, 72 h, Table 5, afatinib-based compounds; HCC827 (Exon19 Del); 72 hours; WST; read-out: IC50 (half inhibitory concentration)

Going from O=C1CCC(N2C(=O)c3cccc(SCCOCCOCCOCC(=O)Nc4cc5c(Nc6ccc(F)c(Cl)c6)ncnc5cc4O[C@H]4CCOC4)c3C2=O)C(=O)N1 (stereo partly drawn) [SIAIS184154, N-(4-((3-chloro-4-fluorophenyl)amino)-7-(((S)-tetrahydrofuran-3-yl)oxy)quinazolin-6-yl)-2-(2-(2-(2-((2-(2,6-dioxopiperidin-3-yl)-1,3-dioxoisoindolin-4-yl)thio)ethoxy)ethoxy)ethoxy)acetamide] to O=C1CCC(N2Cc3c(SCCC(=O)Nc4cc5c(Nc6ccc(F)c(Cl)c6)ncnc5cc4O[C@H]4CCOC4)cccc3C2=O)C(=O)N1 (stereo partly drawn) [SIAIS1210085, N-(4-((3-chloro-4-fluorophenyl)amino)-7-(((S)-tetrahydrofuran-3-yl)oxy)quinazolin-6-yl)-3-((2-(2,6-dioxopiperidin-3-yl)-1-oxoisoindolin-4-yl)thio)propanamide], the IC50 rises from 250 nM to 481 nM (1.9-fold).

O=C1CCC(N2Cc3c(SCCCCCC(=O)Nc4cc5c(Nc6ccc(F)c(Cl)c6)ncnc5cc4O[C@H]4CCOC4)cccc3C2=O)C(=O)N1 (stereo partly drawn) [SIAIS1210089, N-(4-((3-chloro-4-fluorophenyl)amino)-7-(((S)-tetrahydrofuran-3-yl)oxy)quinazolin-6-yl)-6-((2-(2,6-dioxopiperidin-3-yl)-1-oxoisoindolin-4-yl)thio)hexanamide] gave an IC50 of 160 nM.
